Reference: patent US10316017B2, “COT modulators and methods of use thereof” (Gilead Sciences, Inc., priority 2015, dated 2019)

Assays:
[1] = target: T1, human Cot catalytic domain (30-397 amino acids) (Homo sapiens, UniProt P41279); test: High Throughput Cot Biochemical Assay (KinEASE TR-FRET); conditions: Cot biochemical HTRF (KinEASE TR-FRET) assay; read-out: IC50 HTRF
T1 construct: Purified recombinant human Cot catalytic domain (30-397 amino acids) was purchased from Cama Biosciences; purchased Cama Biosciences (so in the source)
T1 sequence (P41279 30-397): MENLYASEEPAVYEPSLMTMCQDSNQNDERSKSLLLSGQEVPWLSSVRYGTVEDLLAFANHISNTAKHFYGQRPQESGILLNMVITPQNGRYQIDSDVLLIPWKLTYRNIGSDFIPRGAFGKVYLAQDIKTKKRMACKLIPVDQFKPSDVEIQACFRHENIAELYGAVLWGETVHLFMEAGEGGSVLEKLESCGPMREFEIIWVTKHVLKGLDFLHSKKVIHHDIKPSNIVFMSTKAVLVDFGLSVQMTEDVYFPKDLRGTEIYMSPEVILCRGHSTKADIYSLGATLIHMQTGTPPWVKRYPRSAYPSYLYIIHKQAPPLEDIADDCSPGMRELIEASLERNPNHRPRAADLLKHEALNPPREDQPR
In short: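 TR-FRET readout: Eu-labeled phospho-specific antibody binds XL665-tagged STK3 peptide after phosphorylation by Cot (aa 30-397, 5 nM). Conditions: 400 μM ATP, 1 μM peptide, MOPS pH 7.0 buffer with MgOAc, DTT, BSA, NP-40, glycerol; 0.1% DMSO.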

[2] = system: TNFα production in LPS-stimulated human monocytes; test: Cot Monocyte TNFα Cell Based Assay; conditions: Homo sapiens, Monocyte, TNFα in LPS-stimulated human monocytes; read-out: EC50 TNF
In short: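 TR-FRET read-out of total secreted TNFα, normalized as % control (unstimulated = 0%, LPS-stimulated = 100%). Cells (5,000/well) were exposed to compound 1 h at 37 °C, then to 50 pg/ml LPS for a further 4 h.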

Structure (SMILES) | IC50 [1] [nM] | EC50 [2] [nM]
CC[C@@H](Nc1c(C#N)cnc2c(Cl)cc(N[C@@H](c3cccc(C(=O)N4CC(F)C4)c3)c3c[nH]nn3)cc12)c1ccccc1 [Example 562, 8-chloro-6-(((S)-(3-(3-fluoroazetidine-1-carbonyl)phenyl)(1H-1,2,3-triazol-4-yl)methyl)amino)-4-(((R)-1-phenylpropyl)amino)quinoline-3-carbonitrile] | 4 | 848
CC[C@@H](Nc1c(C#N)cnc2c(Cl)cc(N[C@@H](c3cccc(C(=O)O)c3)c3c[nH]nn3)cc12)c1ccccc1 [Example 565, 3-((S)-((8-chloro-3-cyano-4-(((R)-1-phenylpropyl)amino)quinolin-6-yl)amino)(1H-1,2,3-triazol-4-yl)methyl)benzoic acid] | 24 | > 10000
CC(C)n1cc([C@@H](Nc2cc(Cl)c3ncc(C#N)c(Nc4ccc(F)c(Cl)c4)c3c2)c2cccc(NS(C)(=O)=O)c2)nn1 [Example 566, (S)-N-(3-(((8-chloro-4-((3-chloro-4-fluorophenyl)amino)-3-cyanoquinolin-6-yl)amino)(1-isopropyl-1H-1,2,3-triazol-4-yl)methyl)phenyl) methanesulfonamide] | 5 | 353
C[C@@H](Nc1c(C#N)cnc2c(Cl)cc(N[C@@H](c3ccccc3)c3cn(C4CCN(C(C)(C)C)CC4)nn3)cc12)c1ccccc1 [Example 569, 6-(((S)-(1-(1-(tert-butyl)piperidin-4-yl)-1H-1,2,3-triazol-4-yl)(phenyl)methyl)amino)-8-chloro-4-(((R)-1-phenylethyl)amino)quinoline-3-carbonitrile] | 7 | 721
CC(C)n1cc([C@@H](Nc2cc(Cl)c3ncc(C#N)c(Nc4ccc(F)c(Cl)c4)c3c2)c2cccc(CN3CCCC3)c2)nn1 [Example 570, (S)-8-chloro-4-((3-chloro-4-fluorophenyl)amino)-6-(((1-isopropyl-1H-1,2,3-triazol-4-yl) (3-(pyrrolidin-1-ylmethyl)phenyl)methyl)amino) quinoline-3-carbonitrile] | 13 | 207
C[C@@H](Nc1c(C#N)cnc2c(Cl)cc(N[C@@H](c3cccc(C(=O)N(C)C)c3)c3cn(C4CCN(C(C)(C)C)CC4)nn3)cc12)c1ccccc1 [Example 571, 3-((S)-(1-(1-(tert-butyl)piperidin-4-yl)-1H-1,2,3-triazol-4-yl)((8-chloro-3-cyano-4-(((R)-1-phenylethyl)amino)quinolin-6-yl)amino)methyl)-N,N-dimethylbenzamide] | 6 | 382
CN(C)C(=O)c1cccc([C@H](Nc2cc(Cl)c3ncc(C#N)c(Nc4ccc(Cl)c(Cl)c4F)c3c2)c2c[nH]nn2)c1 [Example 573, (S)-3-(((8-chloro-3-cyano-4-((3,4-dichloro-2-fluorophenyl)amino)quinolin-6-yl)amino)(1H-1,2,3-triazol-4-yl)methyl)-N,N-dimethylbenzamide] | 10 | 462
N#Cc1cnc2c(Cl)cc(N[C@@H](c3ccccc3)c3cn(C4C5CN(C6COC6)CC54)nn3)cc2c1Nc1ccc(F)c(Cl)c1 (stereo partly drawn) [Example 574, 8-chloro-4-((3-chloro-4-fluorophenyl)amino)-6-(((1S)-(1-(3-(oxetan-3-yl)-3-azabicyclo[3.1.0]hexan-6-yl)-1H-1,2,3-triazol-4-yl)(phenyl)methyl)amino) quinoline-3-carbonitrile] | 42 | 161
N#Cc1cnc2c(Cl)cc(N[C@@H](c3cccc(CN4CCCC4)c3)c3c[nH]nn3)cc2c1Nc1ccc(F)c(Cl)c1 [Example 575, (S)-8-chloro-4-((3-chloro-4-fluorophenyl)amino)-6-(((3-(pyrrolidin-1-ylmethyl)phenyl) (1H-1,2,3-triazol-4-yl)methyl)amino)quinoline-3-carbonitrile] | 10 | 429
C[C@@H](Nc1c(C#N)cnc2c(Cl)cc(N[C@@H](c3cccc(C(=O)N(C)C)c3)c3c[nH]nn3)cc12)c1ccccc1 [Example 578, 3-((S)-((8-chloro-3-cyano-4-(((R)-1-phenylethyl)amino)quinolin-6-yl)amino)(1H-1,2,3-triazol-4-yl)methyl)-N,N-dimethylbenzamide] | 13 | 2150

These reach a lower IC50 [1]. Values come first.

IC50 [1] [nM] | EC50 [2] [nM] | Structure (SMILES)
2 | 280 | CC[C@@H](Nc1c(C#N)cnc2c(Cl)cc(N[C@@H](c3cccc(N(C)C(C)=O)c3)c3c[nH]nn3)cc12)c1ccccc1 [Example 563, N-(3-((S)-((8-chloro-3-cyano-4-(((R)-1-phenylpropyl)amino)quinolin-6-yl)amino)(1H-1,2,3-triazol-4-yl)methyl)phenyl)-N-methylacetamide]
1 | 68 | CC[C@@H](Nc1c(C#N)cnc2c(Cl)cc(N[C@@H](c3cccc(N(C)C(C)=O)c3)c3cn(C4CCN(C(C)(C)C)CC4)nn3)cc12)c1ccccc1 [Example 564, N-(3-((S)-(1-(1-(tert-butyl)piperidin-4-yl)-1H-1,2,3-triazol-4-yl)((8-chloro-3-cyano-4 (((R)-1-phenylpropyl)amino)quinolin-6-yl)amino)methyl)phenyl)-N-methylacetamide]
3 | 76 | CC(C)n1cc([C@@H](Nc2cc(Cl)c3ncc(C#N)c(Nc4ccc(F)c(Cl)c4)c3c2)c2cccc(N(C)S(C)(=O)=O)c2)nn1 [Example 567, (S)-N-(3-(((8-chloro-4-((3-chloro-4-fluorophenyl)amino)-3-cyanoquinolin-6-yl)amino)(1-isopropyl-1H-1,2,3-triazol-4-yl)methyl)phenyl)-N-methylmethanesulfonamide]
2 | 143 | CN(c1cccc([C@H](Nc2cc(Cl)c3ncc(C#N)c(Nc4ccc(F)c(Cl)c4)c3c2)c2cn(C3CCN(C(C)(C)C)CC3)nn2)c1)S(C)(=O)=O [Example 568, (S)-N-(3-((1-(1-(tert-butyl)piperidin-4-yl)-1H-1,2,3-triazol-4-yl)((8-chloro-4-((3-chloro-4-fluorophenyl)amino)-3-cyanoquinolin-6-yl)amino)methyl)phenyl)-N-methylmethanesulfonamide]
2 | 111 | CN(C)C(=O)c1cccc([C@H](Nc2cc(Cl)c3ncc(C#N)c(Nc4ccc(Cl)c(Cl)c4F)c3c2)c2cn(C3CCN(C(C)(C)C)CC3)nn2)c1 [Example 572, (S)-3-((1-(1-(tert-butyl)piperidin-4-yl)-1H-1,2,3-triazol-4-yl)((8-chloro-3-cyano-4-((3,4-dichloro-2-fluorophenyl)amino)quinolin-6-yl)amino)methyl)-N,N-dimethylbenzamide]
2 | 72 | CCN1CC2C(C1)C2n1cc([C@@H](Nc2cc(Cl)c3ncc(C#N)c(Nc4ccc(F)c(Cl)c4)c3c2)c2ccccc2)nn1 (stereo partly drawn) [Example 576, 8-chloro-4-((3-chloro-4-fluorophenyl)amino)-6-(((1S)-(1-(3-ethyl-3-azabicyclo[3.1.0]hexan-6-yl)-1H-1,2,3-triazol-4-yl)(phenyl)methyl)amino) quinoline-3-carbonitrile]
3 | 38 | N#Cc1cnc2c(Cl)cc(N[C@@H](c3ccccc3)c3cn(C4C5CNCC54)nn3)cc2c1Nc1ccc(F)c(Cl)c1 (stereo partly drawn) [Example 577, 6-(((1S)-(1-(3-azabicyclo[3.1.0]hexan-6-yl)-1H-1,2,3-triazo1-4-yl)(phenyl)methyl)amino)-8-chloro-4-((3-chloro-4-fluorophenyl)amino)quinoline-3-carbonitrile]
